# Results as given in paper PMC12542638, “Cystathionine β-synthase TtCbs1 from Tetrahymena thermophila catalyzes the synthesis of CdS quantum dots for methyl orange decolorization” (Applied and Environmental Microbiology, 2025).
# Target: T1, His-TtCbs1 (TtCbs1, cystathionine β-synthase) (Tetrahymena thermophila, UniProt I7M350)
# T1 construct: gene TTHERM_00558300
# T1 sequence (I7M350 1-500): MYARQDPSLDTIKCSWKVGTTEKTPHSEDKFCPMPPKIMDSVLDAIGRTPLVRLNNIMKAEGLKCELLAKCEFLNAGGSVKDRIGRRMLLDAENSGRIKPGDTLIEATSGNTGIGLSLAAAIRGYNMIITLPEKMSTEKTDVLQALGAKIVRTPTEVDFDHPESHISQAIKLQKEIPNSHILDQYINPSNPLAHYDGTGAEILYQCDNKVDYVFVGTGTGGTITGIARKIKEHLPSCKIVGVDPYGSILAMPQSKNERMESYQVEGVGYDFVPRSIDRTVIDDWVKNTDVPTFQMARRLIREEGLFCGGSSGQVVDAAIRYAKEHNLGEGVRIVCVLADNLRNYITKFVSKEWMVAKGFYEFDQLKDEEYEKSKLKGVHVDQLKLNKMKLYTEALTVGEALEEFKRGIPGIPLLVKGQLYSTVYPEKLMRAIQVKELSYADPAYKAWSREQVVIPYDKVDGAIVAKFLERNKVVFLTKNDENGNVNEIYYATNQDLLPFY
# Test: CdS quantum dot formation from enzymatically released H2S, UV-Vis and fluorescence
# Format: biochemical
# Conditions: 50 mM Tris-HCl pH 8.5, 37 °C, 0.1 mg/mL enzyme, 4 mM cysteine, 0.5 mM CdCl2; no signal without enzyme
structure (smiles),measurement,value
N[C@@H](CS)C(=O)O [L-cysteine],"CdS quantum dot formation from enzymatically released H2S, UV-Vis and fluorescen","Cysteine, as a thiol compound, serves as a substrate for His-TtCbs1 to produce H2S"
